{"source": "patent US10080757B2", "about": "(WISCONSIN ALUMNI RESEARCH FOUNDATION, priority 2016, dated 2018)", "key": {"recombinant MtbUGM": {"biological_target": "T1, recombinant MtbUGM (Mycobacterium tuberculosis, UniProt P9WIQ1)", "T1 construct": "made in house", "T1 sequence (P9WIQ1 whole entry)": "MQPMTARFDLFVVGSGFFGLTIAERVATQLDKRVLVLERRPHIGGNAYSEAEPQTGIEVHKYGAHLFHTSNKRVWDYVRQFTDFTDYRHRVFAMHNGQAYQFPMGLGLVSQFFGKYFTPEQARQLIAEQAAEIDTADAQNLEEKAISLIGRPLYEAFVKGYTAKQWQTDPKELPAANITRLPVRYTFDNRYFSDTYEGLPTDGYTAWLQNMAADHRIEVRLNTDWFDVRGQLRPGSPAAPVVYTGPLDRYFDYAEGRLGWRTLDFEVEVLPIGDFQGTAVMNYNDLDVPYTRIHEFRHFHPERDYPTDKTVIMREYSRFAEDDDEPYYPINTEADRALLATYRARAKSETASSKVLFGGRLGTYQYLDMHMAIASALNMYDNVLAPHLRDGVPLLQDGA", "assay": "biochemical"}, "[1]": {"assay": "Aggregation by Dynamic Light Scattering (DLS)", "type": "physicochemical", "conditions": "1% DMSO"}}}
{"molecule": "O=C(O)CC1Sc2nnc(Cc3ccc(Br)cc3)n2N=C1c1ccc(-c2ccccc2)cc1", "note": "(stereo not shown) [Compound 25, 2-(6-([1,1′-biphenyl]-4-yl)-3-(4-bromobenzyl)-7H-[1,2,4]triazolo[3,4-b][1,3,4]thiadiazin-7-yl)acetic acid]", "values": [{"measurement": "MtbUGM activity in presence of compound (in words)", "setting": "recombinant MtbUGM; 10 μM", "result": "completely ablated"}, {"measurement": "inhibition at 10 µM", "setting": "recombinant MtbUGM; 10 μM, mean of two replicates, read-out: % inhib MtbUGM (10 μM)", "result": 100, "unit": "%"}, {"measurement": "inhibition at 50 µM", "setting": "recombinant MtbUGM; 50 μM, mean of two replicates, read-out: % inhib MtbUGM (50 μM)", "result": 100, "unit": "%"}, {"measurement": "inhibition at 100 µM", "setting": "recombinant MtbUGM; 100 μM, mean of two replicates, read-out: % inhib MtbUGM (100 μM)", "result": 100, "unit": "%"}, {"measurement": "Effect of surfactant on relative inhibitor potency", "setting": "recombinant MtbUGM; presence and absence of Tween80", "result": "insignificant"}, {"measurement": "Aggregates by dynamic light scattering", "setting": "[1]; 10 μM in PBS buffer", "result": "No aggregates were observed"}, {"measurement": "Aggregates by dynamic light scattering", "setting": "[1]; 100 μM in PBS buffer", "result": "No aggregates were observed"}]}
